In ChEMBL document CHEMBL4152366, “Design, synthesis, and biological evaluation of novel selective peptide inhibitors of 11β-hydroxysteroid dehydrogenase 1” (Bioorg Med Chem, 2018) one finds inhibition, residual activity and IC50 data, which are given here for three compounds.

The inhibition is the percentage by which the read-out fell short of the control. One may read the residual activity as the activity still measured, relative to the control. As usually defined, the IC50 is the concentration needed to halve the response being measured. A higher IC50 goes with lower potency.

In assay [1] the target is T1, 11-beta-hydroxysteroid dehydrogenase 1 (Homo sapiens, UniProt P28845). In words: Inhibition of 11beta-HSD1 in human skin assessed as reversal of cortisone-mediated decrease in dermal total collagen content at 200 uM by picrosirius red histochemical staining based assay.
Target sequence in this assay (P28845 whole entry, looked up): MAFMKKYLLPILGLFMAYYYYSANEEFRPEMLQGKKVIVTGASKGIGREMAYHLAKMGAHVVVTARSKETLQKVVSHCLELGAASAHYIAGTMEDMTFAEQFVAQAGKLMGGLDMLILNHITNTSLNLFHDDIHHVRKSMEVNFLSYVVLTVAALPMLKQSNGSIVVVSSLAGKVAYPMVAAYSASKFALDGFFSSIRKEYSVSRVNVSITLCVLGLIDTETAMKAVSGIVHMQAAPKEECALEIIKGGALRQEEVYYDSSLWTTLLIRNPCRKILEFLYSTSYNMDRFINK
For assay [2], the target named is T1, 11-beta-hydroxysteroid dehydrogenase 1. In words: Inhibition of 11beta-HSD1 in human skin assessed as reversal of cortisone-mediated decrease in dermal total collagen content by picrosirius red histochemical staining based assay.
Target sequence in this assay (P28845 whole entry, looked up): as above
Assay [3] deals with T2, 17-beta-hydroxysteroid dehydrogenase type 2 (Homo sapiens) (UniProt P37059).
T2 sequence (whole entry): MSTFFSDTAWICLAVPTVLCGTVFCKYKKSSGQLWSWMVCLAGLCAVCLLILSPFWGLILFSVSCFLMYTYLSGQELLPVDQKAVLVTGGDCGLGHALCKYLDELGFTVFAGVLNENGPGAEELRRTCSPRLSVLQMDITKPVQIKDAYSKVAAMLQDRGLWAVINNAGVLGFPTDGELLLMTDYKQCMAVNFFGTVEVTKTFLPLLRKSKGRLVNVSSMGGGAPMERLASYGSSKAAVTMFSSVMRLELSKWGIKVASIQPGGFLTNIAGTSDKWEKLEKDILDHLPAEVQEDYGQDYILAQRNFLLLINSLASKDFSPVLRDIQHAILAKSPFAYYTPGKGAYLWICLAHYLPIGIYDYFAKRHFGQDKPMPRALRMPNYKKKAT
In words: Inhibition of human 17beta-HSD2 expressed in HEK293 cell lysates assessed as remaining enzyme activity at 1 uM using radiolabeled estradiol as substrate incubated for 10 mins by scintillation counting method relative to control; values are per cent of control.

In assay [4] the target is T1, 11-beta-hydroxysteroid dehydrogenase 1. The assay can be described thus: Inhibition of human 11beta-HSD1 expressed in HEK293 cell lysates using radiolabeled cortisone as substrate incubated for 10 mins by scintillation counting method.
Target sequence in this assay (P28845 whole entry): as the sequence (P28845 whole entry, looked up) above
Assay [5] shares this target. In words: Inhibition of 11beta-HSD1 in human primary keratinocytes assessed as reduction in conversion of […] incubated for 48 hrs by enzyme immunoassay. It is filed as cell-based.
Target sequence in this assay (P28845 whole entry, looked up): as the sequence (P28845 whole entry, looked up) above
The target of assay [6] is T3, 17-beta-hydroxysteroid dehydrogenase type 1 (Homo sapiens) (UniProt P14061).
T3 sequence (whole entry): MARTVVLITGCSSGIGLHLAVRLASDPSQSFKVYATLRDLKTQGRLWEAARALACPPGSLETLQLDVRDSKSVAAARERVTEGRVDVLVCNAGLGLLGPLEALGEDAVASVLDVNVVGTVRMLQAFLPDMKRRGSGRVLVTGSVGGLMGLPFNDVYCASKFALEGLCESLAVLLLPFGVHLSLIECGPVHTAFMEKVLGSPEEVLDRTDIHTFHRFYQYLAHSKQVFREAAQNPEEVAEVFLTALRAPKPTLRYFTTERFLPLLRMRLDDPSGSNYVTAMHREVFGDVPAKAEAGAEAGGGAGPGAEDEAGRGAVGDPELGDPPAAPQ
In words: Inhibition of human 17beta-HSD1 expressed in HEK293 cell lysates assessed as remaining enzyme activity at 1 uM using radiolabeled estrone as substrate incubated for 10 mins by scintillation counting method relative to control; values are per cent of control.

Assay [7] deals with T1, 11-beta-hydroxysteroid dehydrogenase 1. The assay can be described thus: Inhibition of 11beta-HSD1 in human skin assessed as reversal of cortisone-mediated decrease in dermal total collagen content at 10 to 100 uM by picrosirius red histochemical staining based assay.
Target sequence in this assay (P28845 whole entry, looked up): as the sequence (P28845 whole entry, looked up) above
For assay [8], the target named is T4, 11-beta-hydroxysteroid dehydrogenase type 2 (Homo sapiens) (UniProt P80365).
T4 sequence (whole entry): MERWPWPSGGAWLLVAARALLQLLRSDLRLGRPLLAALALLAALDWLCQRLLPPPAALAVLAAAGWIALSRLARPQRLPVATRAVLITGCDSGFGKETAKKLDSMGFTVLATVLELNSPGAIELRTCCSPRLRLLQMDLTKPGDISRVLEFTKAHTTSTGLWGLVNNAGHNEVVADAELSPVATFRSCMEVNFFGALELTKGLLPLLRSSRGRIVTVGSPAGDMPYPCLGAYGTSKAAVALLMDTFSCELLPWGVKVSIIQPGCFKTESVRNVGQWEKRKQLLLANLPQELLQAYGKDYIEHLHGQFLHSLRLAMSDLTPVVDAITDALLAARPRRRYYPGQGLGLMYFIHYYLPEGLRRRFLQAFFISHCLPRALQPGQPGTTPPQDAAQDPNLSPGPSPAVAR
The assay can be described thus: Inhibition of human 11beta-HSD2 expressed in HEK293 cell lysates assessed as remaining enzyme activity at 1 uM using radiolabeled cortisol as substrate incubated for 10 mins in presence of NAD+ by scintillation counting method relative to control; values are per cent of control.

Structures are written as SMILES.

For `CC(=O)N[C@@H](Cc1ccc(C#N)cc1)C(=O)N1CCC[C@@H]1C(=O)NC1C2CC3CC(C2)CC1C3` (stereo partly drawn), the inhibition is 100% in assay [1], “Dose-dependent effect” in assay [2], “Dose-dependent effect” in assay [5] and 18% in assay [7]. Also, the residual activity in assay [3], in assay [6] and in assay [8] was more than 90% each time. In assay [4], this compound registered an IC50 of 197 nM.

With `CCOc1ccc(C[C@H](N)C(=O)N2CCC[C@@H]2C(=O)NC2C3CC4CC(C3)CC2C4)cc1` (stereo partly drawn), the residual activity in assay [3], in assay [6] and in assay [8] was more than 90% throughout. Moreover, in assay [4], the IC50 is 373 nM. Further, the inhibition entry in assay [5] was “Dose-dependent effect”.

As for `CC(=O)N[C@@H](Cc1ccc(F)cc1)C(=O)N1CCC[C@@H]1C(=O)NC1C2CC3CC(C2)CC1C3` (stereo partly drawn), the residual activity in assay [3], in assay [6] and in assay [8] was more than 90% each time. This compound also displayed an IC50 in assay [4] of 266 nM. The inhibition entry in assay [5] was “Dose-dependent effect”.
